Measured values reported in ChEMBL document CHEMBL4483862, “Open-source discovery of chemical leads for next-generation chemoprotective antimalarials” (2018).

Tested on: Plasmodium berghei
Assay: Luciferase/luciferin-expressing antifolate-resistant parasites were used to infect a culture of HepG2 cells that were pre-incubated with compounds. Infected hepatocytes emit light due to the luciferase reaction. Assay results are presented as the percent inhibition of light emission compared to control. […]
Type: functional
Settings: sporozoite; for IC90: read-out: LUCIFERASE INFECTION ASSAY - IC90

| SMILES | IC90 | also measured |
| --- | --- | --- |
| COc1ccc(C(C)(C)C)cc1NC(=O)c1ccc(Cl)c(S(=O)(=O)N2CCc3ccccc32)c1 | > 10 µM | IC50 (FFLUC_HILL_SLOPE 21.6, FFLUC_R_SQUARED 0.0861, HEPG2TOX_HILL_SLOPE 0.0233, HEPG2TOX_R_SQUARED 0.0468, PBLUC_HILL_SLOPE 7.45, PBLUC_R_SQUARED 0.387, read-out: LUCIFERASE INFECTION ASSAY - IC50): 8.38 µM |
| Oc1c(Cn2c(=S)sc3ccccc32)cc(Cl)c2cccnc12 | 1.24 µM | IC50 (FFLUC_HILL_SLOPE 19.2, FFLUC_R_SQUARED 0.535, HEPG2TOX_HILL_SLOPE 1.74, 1.21, HEPG2TOX_R_SQUARED 0.199, 0.803, PBLUC_HILL_SLOPE 4.66, PBLUC_R_SQUARED 0.802, read-out: LUCIFERASE INFECTION ASSAY - IC50): 0.772 µM |
| Nc1c(C(=O)c2ccccc2O)cnn1-c1ccccc1C(F)(F)F | 3.04 µM | IC50 (FFLUC_HILL_SLOPE 18.9, FFLUC_R_SQUARED 0.573, PBLUC_HILL_SLOPE 1.34, PBLUC_R_SQUARED 0.647, read-out: LUCIFERASE INFECTION ASSAY - IC50): 0.594 µM |
| Clc1cccc(-c2[nH]nc3nccc(-c4ccc(N5CCNCC5)cc4)c23)c1 | 4.08 µM | IC50 (FFLUC_HILL_SLOPE 19.9, FFLUC_R_SQUARED 0.198, HEPG2TOX_HILL_SLOPE 3.67, HEPG2TOX_R_SQUARED 0.922, PBLUC_HILL_SLOPE 10.3, PBLUC_R_SQUARED 0.464, read-out: LUCIFERASE INFECTION ASSAY - IC50): 3.3 µM |
| CN(c1ccccc1)S(=O)(=O)c1ccc(C(=O)Nc2nc(-c3cc(Cl)sc3Cl)cs2)cc1 | 8.48 µM | IC50 (FFLUC_HILL_SLOPE 19.7, FFLUC_R_SQUARED 0.521, HEPG2TOX_HILL_SLOPE 3.83, HEPG2TOX_R_SQUARED 0.989, PBLUC_HILL_SLOPE 4.8, PBLUC_R_SQUARED 0.68, read-out: LUCIFERASE INFECTION ASSAY - IC50): 5.36 µM |
| CCC(C)NC(=O)c1c(NC(=O)c2cccc(OC)c2)nc2ccc(C)cn12 (stereo not given) | > 8.67 µM | IC50 (FFLUC_HILL_SLOPE 19.6, FFLUC_R_SQUARED 0.348, HEPG2TOX_HILL_SLOPE 6.15, HEPG2TOX_R_SQUARED 0.729, PBLUC_HILL_SLOPE 3.4, PBLUC_R_SQUARED 0.659, read-out: LUCIFERASE INFECTION ASSAY - IC50): 5.09 µM |
| COc1cc2c(cc1OC)C(c1cccs1)N(CC(=O)Nc1ccccc1C(F)(F)F)CC2 (stereo not given) | > 10 µM | IC50 (FFLUC_HILL_SLOPE 19.7, FFLUC_R_SQUARED 0.151, HEPG2TOX_HILL_SLOPE 1.77, HEPG2TOX_R_SQUARED 0.955, PBLUC_HILL_SLOPE 2.27, PBLUC_R_SQUARED 0.356, read-out: LUCIFERASE INFECTION ASSAY - IC50): 5.2 µM |
| O=C1C=CC(=O)N1c1ccccc1OC(F)(F)F | > 12.8 µM | IC50 (FFLUC_HILL_SLOPE 21.4, FFLUC_R_SQUARED 0.595, PBLUC_HILL_SLOPE 3.16, PBLUC_R_SQUARED 0.111, read-out: LUCIFERASE INFECTION ASSAY - IC50): 8.21 µM |
| O=C(OCc1csc(-c2ccccc2)n1)c1cc(O)c2ccccc2c1O | > 10 µM | IC50 (FFLUC_HILL_SLOPE 21.7, FFLUC_R_SQUARED 0.124, read-out: LUCIFERASE INFECTION ASSAY - IC50): > 10 µM |
| COc1ccc(-c2cnc3ccc(-c4cccc(OC(F)(F)F)c4)nn23)cc1OC | 1.23 µM | IC50 (FFLUC_HILL_SLOPE 21.1, FFLUC_R_SQUARED 0.421, PBLUC_HILL_SLOPE 16.1, PBLUC_R_SQUARED 0.675, read-out: LUCIFERASE INFECTION ASSAY - IC50): 1.08 µM |
| CCCCNC(=O)c1c(NC(=O)c2ccc(F)cc2)nc2ccccn12 | 3.43 µM | IC50 (FFLUC_HILL_SLOPE 20.6, FFLUC_R_SQUARED 0.0581, HEPG2TOX_HILL_SLOPE 2.28, HEPG2TOX_R_SQUARED 0.75, PBLUC_HILL_SLOPE 12.8, PBLUC_R_SQUARED 0.452, read-out: LUCIFERASE INFECTION ASSAY - IC50): 2.88 µM |
| Cc1cccc(NC(=O)NC(=O)CSc2ccc(S(=O)(=O)N(C)C)cn2)c1C | > 10 µM | IC50 (FFLUC_HILL_SLOPE 22.1, FFLUC_R_SQUARED 0.241, read-out: LUCIFERASE INFECTION ASSAY - IC50): > 10 µM |
| Cc1ccnc(NC(c2cccc(C)n2)c2ccc3cccnc3c2O)c1 (stereo not given) | > 9.26 µM | IC50 (FFLUC_HILL_SLOPE 20.2, FFLUC_R_SQUARED 0.523, HEPG2TOX_HILL_SLOPE 12.4, HEPG2TOX_R_SQUARED 0.193, PBLUC_HILL_SLOPE 13.3, PBLUC_R_SQUARED 0.0907, read-out: LUCIFERASE INFECTION ASSAY - IC50): 7.89 µM |
| O=c1c(Cl)c(Cl)cnn1Cc1nc2cc(Cl)ccc2n1Cc1ccccc1 | > 10 µM | IC50 (FFLUC_HILL_SLOPE 21.9, FFLUC_R_SQUARED 0.587, HEPG2TOX_HILL_SLOPE 12.6, HEPG2TOX_R_SQUARED 0.77, read-out: LUCIFERASE INFECTION ASSAY - IC50): > 10 µM |
| NC(=NNC(=S)Nc1ccccc1C(F)(F)F)c1ccccn1 | 2.78 µM | IC50 (FFLUC_HILL_SLOPE 21.9, FFLUC_R_SQUARED 0.597, HEPG2TOX_HILL_SLOPE 0.969, HEPG2TOX_R_SQUARED 0.909, PBLUC_HILL_SLOPE 1.81, PBLUC_R_SQUARED 0.836, read-out: LUCIFERASE INFECTION ASSAY - IC50): 0.826 µM |
| N#CC(C#N)=C/C=C(/Sc1nc(-c2ccccc2)cs1)c1ccc(Cl)cc1 | > 8.13 µM | IC50 (FFLUC_HILL_SLOPE 19.5, FFLUC_R_SQUARED 0.704, PBLUC_HILL_SLOPE 6.45, PBLUC_R_SQUARED 0.183, read-out: LUCIFERASE INFECTION ASSAY - IC50): > 8.13 µM |
| CC(C)c1ccc2c(c1)/C(=N/NC(=S)NCCc1ccccc1)C(=O)N2 | 8.12 µM | IC50 (FFLUC_HILL_SLOPE 19.2, FFLUC_R_SQUARED 0.695, HEPG2TOX_HILL_SLOPE 7.84, HEPG2TOX_R_SQUARED 0.253, PBLUC_HILL_SLOPE 4.58, PBLUC_R_SQUARED 0.343, read-out: LUCIFERASE INFECTION ASSAY - IC50): 5.02 µM |
| Cc1ccc(Cn2nc(C)cc2C(=O)Sc2ccc(Cl)cc2)cc1 | > 9.25 µM | IC50 (FFLUC_HILL_SLOPE 19.8, FFLUC_R_SQUARED 0.763, PBLUC_HILL_SLOPE 2.54, PBLUC_R_SQUARED 0.663, read-out: LUCIFERASE INFECTION ASSAY - IC50): 5.77 µM |
| Cc1nc(N2N=C3/C(=C/c4ccc(F)cc4)CCCC3C2c2ccc(F)cc2)sc1C(=O)O (stereo not given) | > 10 µM | IC50 (FFLUC_HILL_SLOPE 19.4, FFLUC_R_SQUARED 0.522, read-out: LUCIFERASE INFECTION ASSAY - IC50): > 10 µM |
| O=c1cc(CSc2nc3ccccc3c(=O)n2Cc2ccccc2)c2cc(O)c(O)cc2o1 | > 10 µM | IC50 (FFLUC_HILL_SLOPE 22, FFLUC_R_SQUARED 0.332, read-out: LUCIFERASE INFECTION ASSAY - IC50): > 10 µM |
| O=S(=O)(c1cc(C(F)(F)F)cc(C(F)(F)F)c1)N1CCC(C(c2ccccc2)c2ccccc2)CC1 | > 6.26 µM | IC50 (FFLUC_HILL_SLOPE 21.5, FFLUC_R_SQUARED 0.833, read-out: LUCIFERASE INFECTION ASSAY - IC50): > 6.26 µM |
| CCn1c(-c2ccccc2)c(C(=O)Cn2ncc(Cl)c(Cl)c2=O)c2ccccc21 | > 10 µM | IC50 (FFLUC_HILL_SLOPE 22, FFLUC_R_SQUARED 0.674, read-out: LUCIFERASE INFECTION ASSAY - IC50): > 10 µM |
| CO/N=C1\CCCc2c(C(=O)N/N=C/c3ccccc3Cl)sc(SC)c21 | 1.81 µM | IC50 (FFLUC_HILL_SLOPE 19.7, FFLUC_R_SQUARED 0.147, HEPG2TOX_HILL_SLOPE 0.857, HEPG2TOX_R_SQUARED 0.906, PBLUC_HILL_SLOPE 1.47, PBLUC_R_SQUARED 0.897, read-out: LUCIFERASE INFECTION ASSAY - IC50): 0.406 µM |
| Cc1ccc(C2=NN(C(=O)Cn3nc(C)c(S(=O)(=O)N(C)C)c3C)C(c3ccco3)C2)cc1 (stereo not given) | > 10 µM | IC50 (FFLUC_HILL_SLOPE 21, FFLUC_R_SQUARED 0.497, read-out: LUCIFERASE INFECTION ASSAY - IC50): > 10 µM |
| CC1Cc2ccccc2N1C(=O)CSC1=NNC(=C2N=Nc3ccccc32)N1c1ccccc1 (stereo not given) | 8.33 µM | IC50 (FFLUC_HILL_SLOPE 19.6, FFLUC_R_SQUARED 0.491, PBLUC_HILL_SLOPE 5.23, PBLUC_R_SQUARED 0.568, read-out: LUCIFERASE INFECTION ASSAY - IC50): 5.48 µM |
| Cn1c(-c2ccco2)nc2cnc(Nc3cccc(C(F)(F)F)c3)cc21 | > 10 µM | IC50 (FFLUC_HILL_SLOPE 19, FFLUC_R_SQUARED 0.549, HEPG2TOX_HILL_SLOPE 17, HEPG2TOX_R_SQUARED 0.382, PBLUC_HILL_SLOPE 1.81, PBLUC_R_SQUARED 0.343, read-out: LUCIFERASE INFECTION ASSAY - IC50): 8.8 µM |
| COc1ccc(O)c(C=C(c2nc3ccccc3s2)c2nc3ccccc3s2)c1 | > 10 µM | IC50 (FFLUC_HILL_SLOPE 21.2, FFLUC_R_SQUARED 0.491, read-out: LUCIFERASE INFECTION ASSAY - IC50): > 10 µM |
| O=c1c(Cl)c(Cl)cnn1-c1c(Cl)cc(C(F)(F)F)cc1Cl | 1.61 µM | IC50 (FFLUC_HILL_SLOPE 19, FFLUC_R_SQUARED 0.471, HEPG2TOX_HILL_SLOPE 2.99, HEPG2TOX_R_SQUARED 0.99, PBLUC_HILL_SLOPE 1.54, PBLUC_R_SQUARED 0.797, read-out: LUCIFERASE INFECTION ASSAY - IC50): 0.388 µM |
| Cc1nn2c(=O)cc(CSc3ccc(Cl)cc3)[nH]c2c1-c1ccccc1 | 1.17 µM | IC50 (FFLUC_HILL_SLOPE 20.8, FFLUC_R_SQUARED 0.612, HEPG2TOX_HILL_SLOPE 1.69, HEPG2TOX_R_SQUARED 0.683, PBLUC_HILL_SLOPE 14, PBLUC_R_SQUARED 0.557, read-out: LUCIFERASE INFECTION ASSAY - IC50): 0.998 µM |
| O=C1C=CC(=O)N1c1ccc(Cl)cc1 | > 15.9 µM | IC50 (FFLUC_HILL_SLOPE 21.9, FFLUC_R_SQUARED 0.305, PBLUC_HILL_SLOPE 2.09, PBLUC_R_SQUARED 0.529, read-out: LUCIFERASE INFECTION ASSAY - IC50): 12.2 µM |
